Earlier results on one compound are cited in US10960082B2, “Tridentate connexon and use thereof” (NEWBIO THERAPEUTICS, INC., priority 2013, dated 2021).

This data set has as its system human carcinoma lines.

As to `COc1cccc2c1C(=O)c1c(O)c3c(c(O)c1C2=O)C[C@@](O)(C(=O)CO)C[C@@H]3O[C@H]1C[C@H](N)[C@H](O)[C@H](C)O1` [doxorubicin], the 50% inhibitory concentration (IC50) is 100 to 200 nM.

Usually IC50 stands for the concentration at which inhibition is half-maximal.
